Measurements: US20260234130A1, “EP2 Antagonist Compounds” (Reservoir Neuroscience, Inc., priority 2022, published 2026)

Target: T1, EP2 receptor (Homo sapiens, UniProt P43116)
T1 construct: expressed in transfected cells; host or cells: CHO-K1 cells (ATCC), transient transfection with FuGENE 6
Test: EP2 potency assay (cAMP TR-FRET, LANCE Ultra cAMP kit) in transfected CHO-K1 cells stimulated with PGE2 at EC80
Format: cell-based
Settings: Table (V), EP2 antagonism, CHO-K1 cells expressing EP2, PGE2 at EC80
Method: Compound potency was measured using a cAMP TR-FRET assay. CHO-K1 cells (ATCC) were seeded at a density of 9.75×105 in 6 cm plates, and then on the following day cell media was changed to Opti-Mem I reduced serum media (Gibco), and transfected with a plasmid for expression of the EP2 receptor (the target receptor of interest), using the FuGENE 6 Transfection reagent (Promega). After 6 hours incubation, the cell media was replaced with F12 medium supplemented with 10% FBS and 100 U/ml Pen-Strep. 24 hours after transfection, cells were harvested and seeded at a density of 3000 cells/well in a 384 well plate to perform the cAMP assay, using the LANCE Ultra cAMP assay kit (PerkinElmer). For each test compound of interest, 10 nl/well of serially diluted test compound was added to each well, resulting in a range of 10 serially diluted compound concentrations from 10000 nM to 0.038 nM, with duplicate wells for each concentration. Plates were then centrifuged at 1000 rpm for 1 min, agitated at 600 rpm at R.T. for 2 min, and incubated at 25° C. for 5 min. The reference agonist, prostaglandin E2 (MCE), was added to each well at the appropriate concentration to reach its EC80 value. Plates were then centrifuged at 1000 rpm for 1 min, agitated at 600 rpm at R.T. for 2 min, and incubated at 25° C. for 30 min. To measure levels of cAMP, 5 μl/well of Eu-cAMP working solution and 5 μl/well of Ulight-anti-cAMP working solution were added to each well, and the plate was centrifuged at 1000 rpm for 1 min, agitated at 600 rpm at R.T. for 2 min, and incubated at 25° C. for 15 min. Levels of TR-FRET fluorescence were measured in each well using an EnVision microplate reader (excitation wavelength=337 nm and emission wavelength=615 and 665 nm). A dose-response curve was prepared by plotting percent inhibition for each compound concentration, and then IC50 was calculated by fitting a curve to the plotted values and extrapolating the IC50 concentration. […] Potency data is grouped into categories of AA (IC50<100 nM); A (IC50=100 to 500 nM); B (IC50=500 nM to […]); C (IC50=1 μM to 5 μM); and D (IC50>5 μM).

T1 sequence (P43116 whole entry): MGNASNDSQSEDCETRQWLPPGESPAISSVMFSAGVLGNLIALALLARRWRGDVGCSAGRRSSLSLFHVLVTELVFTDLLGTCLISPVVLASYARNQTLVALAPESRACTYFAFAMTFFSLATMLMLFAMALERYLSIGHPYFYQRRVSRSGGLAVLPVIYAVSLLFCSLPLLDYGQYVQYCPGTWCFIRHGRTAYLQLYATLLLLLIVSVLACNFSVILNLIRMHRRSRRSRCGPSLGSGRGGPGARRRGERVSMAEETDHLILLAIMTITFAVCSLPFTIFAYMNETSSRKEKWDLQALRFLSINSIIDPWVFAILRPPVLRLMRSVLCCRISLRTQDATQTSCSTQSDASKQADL

Row | IC50 [nM] | SMILES
1 | 100 to 500 | COc1ncc(CN2CCOc3c(Cl)cc(-c4coc5c(F)c(F)ccc45)cc3C2)cn1 [II-39, 9-chloro-7-(6,7-difluorobenzofuran-3-yl)-4-((2-methoxypyrimidin-5-yl)methyl)-2,3,4,5-tetrahydrobenzo[f][1,4]oxazepine]
2 | < 100 | O=C(O)c1ncc(CN2CCOc3c(Cl)cc(-n4ccc5c(F)c(F)ccc54)cc3C2)cn1 [II-41, 5-((9-chloro-7-(4,5-difluoro-1H-indol-1-yl)-2,3-dihydrobenzo[f][1,4]oxazepin-4(5H)-yl)methyl)pyrimidine-2-carboxylic acid]
3 | < 100 | Fc1ccc2c(ccn2-c2cc(Cl)c3c(c2)CN(Cc2cnc(-c4nnn[nH]4)nc2)CCO3)c1F [II-42, 4-((2-(1H-tetrazol-5-yl)pyrimidin-5-yl)methyl)-9-chloro-7-(4,5-difluoro-1H-indol-1-yl)-2,3,4,5-tetrahydrobenzo[f][1,4]oxazepine]
4 | 500 to 1000 | COc1ncc(CN2CCOc3c(Cl)cc(-n4cnc5cc(F)ccc54)cc3C2)cn1 [II-49, 9-chloro-7-(5-fluoro-1H-benzo[d]imidazol-1-yl)-4-((2-methoxypyrimidin-5-yl)methyl)-2,3,4,5-tetrahydrobenzo[f][1,4]oxazepine]
5 | < 100 | CS(=O)(=O)Nc1cc(CN2CCOc3c(Cl)cc(-n4ccc5cc(F)ccc54)cc3C2)cnn1 [II-52, N-(5-((9-chloro-7-(5-fluoro-1H-indol-1-yl)-2,3-dihydrobenzo[f][1,4]oxazepin-4(5H)-yl)methyl)pyridazin-3-yl)methanesulfonamide]
6 | < 100 | CCOC(=O)c1ncc(CN2CCOc3c(Cl)cc(-n4ccc5c(F)c(F)ccc54)cc3C2)cn1 [II-74, ethyl 5-((9-chloro-7-(4,5-difluoro-1H-indol-1-yl)-2,3-dihydrobenzo[f][1,4]oxazepin-4(5H)-yl)methyl)pyrimidine-2-carboxylate]

Continued, compound first:

Row | SMILES | IC50 [nM]
7 | Fc1ccc2c(-c3cc(Cl)c4c(c3)CN(Cc3cnc(-c5nnn[nH]5)nc3)CCO4)coc2c1 [II-43, 4-((2-(1H-tetrazol-5-yl)pyrimidin-5-yl)methyl)-9-chloro-7-(6-fluorobenzofuran-3-yl)-2,3,4,5-tetrahydrobenzo[f][1,4]oxazepine] | < 100
8 | O=c1ncc(CN2CCOc3c(Cl)cc(-n4ncc5cc(F)ccc54)cc3C2)c[nH]1 [II-44, 5-((9-chloro-7-(5-fluoro-1H-indazol-1-yl)-2,3-dihydrobenzofuran[f][1,4]oxazepin-4(5H)-yl)methyl)pyrimidin-2(1H)-one] | < 100
9 | COc1ncc(CN2CCOc3c(Cl)cc(-c4csc5cc(F)ccc45)cc3C2)cn1 [II-46, 9-chloro-7-(6-fluorobenzo[b]thiophen-3-yl)-4-((2-methoxypyrimidin-5-yl)methyl)-2,3,4,5-tetrahydrobenzo[f][1,4]oxazepine] | 100 to 500
10 | O=c1ncc(CN2CCOc3c(Cl)cc(-c4csc5cc(F)ccc45)cc3C2)c[nH]1 [II-47, 5-((9-chloro-7-(6-fluorobenzo[b]thiophen-3-yl)-2,3-dihydrobenzo[f][1,4]oxazepin-4(5H)-yl)methyl)pyrimidin-2(1H)-one] | < 100
11 | COc1ncc(CN2CCOc3c(Cl)cc(-c4coc5cc(F)ccc45)cc3C2)cn1 [II-48, 9-chloro-7-(6-fluorobenzofuran-3-yl)-4-((2-methoxypyrimidin-5-yl)methyl)-2,3,4,5-tetrahydrobenzo[f][1,4]oxazepine] | < 100
